These results are taken from the METLIN SMRT retention time set (Domingo-Almenara et al. 2019).

Structures are written as SMILES.

The data set in a line: gradient 5% acetonitrile 3 min, to 50% in 2 min, to 85% in 15 min, held 3 min, 100 µL/min. The settings on record: column: Zorbax Extend-C18 2.1 x 50 mm; eluents: water / acetonitrile, 0.1% formic acid. A digest of the protocol: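 Retention times come from adduct peaks that were picked computationally and then checked by hand. The standards, pure and pooled in mixtures of ~100 molecules, were run on a Zorbax Extend-C18 column (2.1 × 50 mm, 1.8 μm) at 100 μL/min with water and acetonitrile, each with 0.1% formic acid. Detection was by quadrupole time-of-flight mass spectrometry in positive and negative ionization mode, with a dead volume of 40 μL and a dwell volume of 900 μL.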
Consider `Cc1ccccc1CNC(=O)c1cn(C)nc1S(=O)(=O)N1CCSCC1`, for which the RP-LC retention time was found to be 887 s.

Turning to `Cc1cccc(-c2nc(C)c(CCNC(=O)C(=O)Nc3ccc([N+](=O)[O-])cc3)s2)c1`, the RP-LC retention time came out at 1020 s.

On to `Cc1ccc(Cc2nc(-c3ccnc(N4CCOCC4)c3)no2)cc1`, for which the RP-LC retention time was 908 s.

`COCCN1C(=O)CCc2cc(NS(=O)(=O)c3ccc(C)cc3C)ccc21` registered an RP-LC retention time of 816 s.

Consider `CCc1c(C2CCN(C(=O)Nc3ccc(OC)cc3)CC2)noc1N`, for which the RP-LC retention time stood at 693 s.

The compound `CCOC(=O)N1CCN(S(=O)(=O)c2ccc(OCC)cc2OCC)CC1` had an RP-LC retention time of 858 s.

Take `c1cnn(-c2cc(N3CCCC3)ncn2)c1`: the RP-LC retention time was 678 s.

Compound `O=C(c1ccc(Br)o1)N1CCCC(c2nnc(-c3ccccc3)o2)C1` (stereo not given) had an RP-LC retention time of 852 s.

The compound `CN(C)c1ccc(CNC(=O)c2ccc3ncnc(N4CCCC4)c3c2)cc1` came in with an RP-LC retention time of 556 s.

For `Cc1nnc(C2CCCN(C(=O)c3nc4ccccc4s3)C2)s1` (stereo not given), the RP-LC retention time amounted to 736 s.

As for `COC(=O)c1scc(-c2ccccc2)c1S(=O)(=O)N1CCC(C(N)=O)(N2CCCCC2)CC1`, the RP-LC retention time was 662 s.

In turn, `CCc1ccccc1NC(=O)N1CCC(n2cnnc2C2CC2)C1` (stereo not given) yielded an RP-LC retention time of 628 s.

Consider `COc1ccc(/C=C/c2ccc3c(c2)OCCO3)cc1O`, for which the RP-LC retention time was found to be 868 s.

In turn, `Cc1nnc2ccc(-c3cccc(NC(=O)C4CCN(S(C)(=O)=O)CC4)c3)nn12` yielded an RP-LC retention time of 605 s.

Regarding `CCOc1ccccc1NC(=O)N(C)CCc1noc(C2CCCCC2)n1`, the RP-LC retention time came out at 1070 s.

As for `Cc1ccc(C(=O)NC2CCCCCCC2)cc1NC(=O)C1=CSCCO1`, the RP-LC retention time stood at 949 s.

`Cc1nc(C2CCOCC2)n(C2CCN(S(=O)(=O)c3cc(F)cc(F)c3)C2)n1` (stereo not given) yielded an RP-LC retention time of 740 s.

`O=C(CSc1nnc2ccc(-c3cccnc3)nn12)NCc1cccs1` registered an RP-LC retention time of 588 s.

Compound `Cc1cccc(C)c1NC(=O)C1CCCN(c2nc3ccccc3nc2C(F)(F)F)C1` (stereo not given) came in with an RP-LC retention time of 1170 s.

In turn, `Fc1cc(F)cc(-c2noc3ncnc(N4CCN(c5ccccn5)CC4)c23)c1` showed an RP-LC retention time of 678 s.

Consider `CCn1c(CN(C)C(=O)Nc2ccc(Br)cc2)nc2cc(C(=O)N(C)C)ccc21`, for which the RP-LC retention time was 657 s.

In the case of `Cc1ccc(-c2nnc(N3CCC(C(=O)N4CCC5(CC4)OCCO5)CC3)o2)cc1`, the RP-LC retention time is 755 s.

The compound `CN(c1cccc(NC(=O)C2CCN(S(=O)(=O)Cc3ccccc3)CC2)c1)S(C)(=O)=O` registered an RP-LC retention time of 806 s.

`COc1ccc(S(=O)(=O)N2CC(F)(F)C[C@H]2c2nc(C)no2)cc1` yielded an RP-LC retention time of 851 s.

`CNC(=O)[C@@H]1CN(C(=O)NCc2ccco2)C[C@H]1c1nc(C)no1` returned an RP-LC retention time of 602 s.

For `Cc1noc(C2CN(C(=O)c3ccc(F)c(F)c3)CC23CCOCC3)n1` (stereo not given), the RP-LC retention time amounted to 710 s.

As to `Cc1cccc(N(C)C(=O)Cc2c(C(=O)O)c(C)cn2C)c1`, the RP-LC retention time came to 739 s.

In turn, `Cc1cccc(N2CC(C(=O)NC3CCCC3)CC2=O)c1` (stereo not given) came in with an RP-LC retention time of 767 s.

Consider `O=C(NCC1CCN(C(=O)Oc2ccccc2)CC1)Nc1ccc(C(F)(F)F)cc1`, for which the RP-LC retention time came out at 947 s.

As to `CC(C)c1nnc(-c2cccnc2N2CCN(C(=O)c3ccc4c(c3)OCO4)CC2)o1`, the RP-LC retention time is 759 s.

Compound `O=C(Cc1ccsc1)NCC1CCCCC(=O)N1` (stereo not given) returned an RP-LC retention time of 619 s.

Compound `Cc1nccn1-c1ccc(=O)n(CCNC(=O)Cn2nc(-c3ccc(F)cc3)ccc2=O)n1` showed an RP-LC retention time of 780 s.

`COc1ccc(NC(=O)N2CCc3cn(C)c4cccc(c34)C2)cc1` registered an RP-LC retention time of 844 s.

Regarding `COc1ccccc1-c1nc2nccc(-c3cccnc3)n2n1`, the RP-LC retention time is 655 s.

In turn, `CCN1CCN(CC(=O)NCc2ccccc2)C(=O)C1=O` gave an RP-LC retention time of 570 s.

Consider `Cc1ccc(-c2nc(N3CC(C)OC(C)C3)c3ccccc3n2)cc1` (stereo not given), for which the RP-LC retention time turned out to be 763 s.

For the compound `COc1ccccc1OCCNC(=O)C1CC(=O)N(c2n[nH]c3ccccc23)C1` (stereo not given), the RP-LC retention time worked out at 682 s.

In turn, `COCCCNC(=O)C1c2ccccc2C(=O)N1Cc1cccc(Br)c1` (stereo not given) gave an RP-LC retention time of 750 s.

In turn, `COC(=O)c1sccc1NC(=O)Nc1cccn2c(C3CCC3)nnc12` registered an RP-LC retention time of 884 s.

Compound `O=C(CN1C(=O)C(C(=O)N2CCCC2)Sc2ccccc21)Nc1ccc(F)cc1` (stereo not given) returned an RP-LC retention time of 978 s.

`CCOc1ccccc1NC(=O)CN1C(=O)C(O)(c2cccc(C)c2)c2ccccc21` (stereo not given) had an RP-LC retention time of 640 s.

`Cc1nc(C)c(C(=O)N2CCC(N3C[C@H](O)C[C@H]3C(=O)NC3CCCCC3)CC2)s1` had an RP-LC retention time of 574 s.

`CN(c1ccc(F)cc1)S(=O)(=O)N1CCCC(C(=O)NCCc2c[nH]c3ccccc23)C1` (stereo not given): the RP-LC retention time is 932 s.

On to `CCCN1CCN(CCCNc2nc(-c3ccc(OC)cc3)nc3ccccc23)CC1`, for which the RP-LC retention time amounted to 576 s.

As to `CN(C)C[C@@H]1CN(c2ncccn2)C[C@H]1NS(=O)(=O)Cc1ccccc1`, the RP-LC retention time worked out at 601 s.

On to `CCN1C(=O)c2cc(C(=O)N3CCC(N4CCCCC4)CC3)nn2CC1(C)C(=O)NC1CCCC1` (stereo not given), for which the RP-LC retention time amounted to 604 s.

With `Cc1ccc2c(c1)c1ncn(Cc3nc(C(C)C)no3)c(=O)c1n2CC(=O)N1CCCC1`, the RP-LC retention time came to 818 s.

Compound `CCOC(=O)c1cccc(NC(=O)c2cnc(-c3ccc(C)cc3)nc2-c2ccncc2)c1` displayed an RP-LC retention time of 1050 s.

Compound `CCCn1c2ccccc2c2nnc(SC(CC)C(=O)Nc3nc(-c4ccccc4)cs3)nc21` (stereo not given) returned an RP-LC retention time of 1230 s.

Compound `CC(C)NC(=O)N(C1CC1)C1CCOC2(CCN(C(=O)C3(c4ccccc4)CC3)CC2)C1` (stereo not given) displayed an RP-LC retention time of 865 s.

Regarding `O=C1CC(c2noc(CCCc3ccccc3)n2)CN1c1ccc(F)c(Cl)c1` (stereo not given), the RP-LC retention time was 1150 s.

In the case of `CCN(c1ccccc1)c1nc(Cl)nc2c1cnn2C`, the RP-LC retention time came out at 1070 s.

The compound `CC(=O)N1CCc2ccccc2C1C(=O)NCc1cc(F)ccc1F` (stereo not given) gave an RP-LC retention time of 648 s.

Compound `CCCC(=O)N1CCc2c([nH]c3ccccc23)C1c1ccc(F)cc1` (stereo not given) returned an RP-LC retention time of 698 s.

Consider `CCC(C)NC(=O)CSc1nc(N2CCc3ccccc3C2)nc2ccccc12` (stereo not given), for which the RP-LC retention time was 795 s.

`O=C(c1cnccn1)N1[C@H]2CC[C@@H]1c1cnc(-c3ccccc3)nc1C2` came in with an RP-LC retention time of 807 s.

For `CCCCN(C)C(=O)c1ccc(-c2nnc3ccc(NC(=O)CC)cn23)cc1`, the RP-LC retention time came to 740 s.

On to `Cc1nn(C)c2nc(OCC(=O)Nc3ccc(Br)cc3F)cc(C(F)(F)F)c12`, for which the RP-LC retention time amounted to 1080 s.

For `Cc1ccccc1S(=O)(=O)N1CCC(Cc2nncn2-c2ccccc2)CC1`, the RP-LC retention time amounted to 827 s.

In the case of `Cc1ccc(S(=O)(=O)N2C(=O)CCC2C(=O)Nc2ccc(C)c(F)c2)cc1C` (stereo not given), the RP-LC retention time amounted to 1020 s.

Take `COc1ccc(C(=O)Nc2cc(-c3cccnc3)no2)cc1`: the RP-LC retention time turned out to be 721 s.

Consider `CCOC(=O)c1cccc(NC(=O)C2CCCN(c3ncnc4c3nc3n4CCCCC3)C2)c1` (stereo not given), for which the RP-LC retention time was found to be 876 s.

Turning to `CCOc1ccc(C2CNC(=O)C2C(=O)OC)cc1OCC` (stereo not given), the RP-LC retention time was 694 s.

`CCOc1ccc(CC(=O)N2CCCC2c2nc(-c3ccc(OC)c(OC)c3)no2)cc1OCC` (stereo not given) had an RP-LC retention time of 925 s.

`COc1cc(OC)cc(-c2nnc(Cc3nc(-c4ccc(C)cc4)no3)o2)c1` displayed an RP-LC retention time of 1080 s.

With `O=C(NC1CCCC1)N1CC(Oc2cccc(-c3nc(-c4ccccc4)no3)c2)C1`, the RP-LC retention time was found to be 1130 s.

In turn, `CCOc1ccc(-n2cc(C(=O)OCC(=O)OC)c3ccccc3c2=O)cc1` displayed an RP-LC retention time of 1000 s.

As to `CCCNC(=O)C1CCCN(c2ccc(SCC(=O)Nc3cccc(C(F)(F)F)c3)nn2)C1` (stereo not given), the RP-LC retention time was 744 s.

Take `Oc1c(C(Nc2cccc(Cl)c2)c2cccnc2)ccc2cccnc12` (stereo not given): the RP-LC retention time worked out at 692 s.

`Cc1ccc(C2=NC3(CCN(C(=O)c4ccco4)CC3)ON2)cc1` came in with an RP-LC retention time of 747 s.

`CCc1ccc(S(=O)(=O)N2CCN(c3cc(C)nc(NC4CCCCC4)n3)CC2)cc1` gave an RP-LC retention time of 876 s.

`O=C(C1CC1)N1CCCC(OCc2nc(-c3cnccn3)no2)C1` (stereo not given) came in with an RP-LC retention time of 651 s.

In turn, `O=S(=O)(Cc1noc(-c2ccc(F)cc2F)n1)c1ccc(Cl)cc1` gave an RP-LC retention time of 1160 s.

As to `CCOC(=O)Cn1c2ccccc2n2nc(C)c(=O)nc12`, the RP-LC retention time was 699 s.

`Cc1cccc(C2CC(=O)c3cnc(N4CCN(c5ccccn5)CC4)nc3C2)c1` (stereo not given) displayed an RP-LC retention time of 737 s.

In the case of `CC(C)Cn1c(=O)c(N2CCN(C(=O)CCCc3ccccc3)CC2)nc2ccncc21`, the RP-LC retention time is 742 s.

`CCc1ccccc1NC(=O)CN1C(=O)C2CCCCN2c2ccc(S(=O)(=O)N(C)C)cc21` (stereo not given) came in with an RP-LC retention time of 918 s.

In turn, `Cc1cc(=O)n(Cc2cccc(Br)c2)c(Nc2ccc(F)c(F)c2)n1` gave an RP-LC retention time of 1270 s.

The compound `O=C(NCCc1ccc(Cl)cc1)c1nnc(-c2ccc(S(=O)(=O)N3CCOCC3)cc2)o1` registered an RP-LC retention time of 925 s.

On to `O=C(CCc1c(-c2cccc(Cl)c2)nc2ccccn12)NCc1ccco1`, for which the RP-LC retention time was found to be 637 s.
